Laboratory results from patent US20110257225A1, “CYCLOHEXYLAMINE DERIVATIVE CONTAINING PHENYL GROUP, AND THERAPEUTIC AGENT FOR DISEASES ACCOMPANIED BY CENTRAL NERVOUS SYSTEM DISORDERS” (M'S Science Corporation, priority 2008, published 2011).

Key:
sigma receptor = target: T1, sigma receptor (Cavia porcellus, UniProt Q60492); experiment: Evaluation of affinity to sigma receptors ([3H](+)-pentazocine receptor binding, whole-brain membrane preparation); parameters: species or system guinea pig; conditions: for Ki: Ki from Dixon plot; for inhibition at 1 µM: compound concentration 1 × 10^−6 mol/L; for inhibition at 1 µM / inhibition at 0.1 µM / inhibition at 0.01 µM / inhibition at 0.001 µM / inhibition at 0.0001 µM / inhibition at 10 pM: [3H](+)-pentazocine, 25° C., 60 minutes, read-out: Inhibition rate (%); for inhibition at 0.1 µM: compound concentration 1 × 10^−7 mol/L; for inhibition at 0.01 µM: compound concentration 1 × 10^−8 mol/L; for inhibition at 0.001 µM: compound concentration 1 × 10^−9 mol/L; for inhibition at 0.0001 µM: compound concentration 1 × 10^−10 mol/L; for inhibition at 10 pM: compound concentration 1 × 10^−11 mol/L; for IC50: from logit-log regression of the dose-response curve
T1 construct: A membrane preparation as a sigma receptor obtained from the whole brain of guinea pigs; from tissue; host or cells: guinea pig whole brain membrane preparation
T1 sequence (Q60492 whole entry): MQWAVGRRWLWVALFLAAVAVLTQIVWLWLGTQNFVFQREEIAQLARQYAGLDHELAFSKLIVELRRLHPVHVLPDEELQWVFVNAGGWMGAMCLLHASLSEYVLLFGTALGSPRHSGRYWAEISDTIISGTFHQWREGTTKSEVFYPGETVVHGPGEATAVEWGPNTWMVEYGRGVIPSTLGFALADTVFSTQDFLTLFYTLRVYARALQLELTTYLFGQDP
Description: The following measurement of radioactivity was performed according to a usual method after the binding reaction had been carried out at 25° C. for 60 minutes.
The inhibition rate was determined by the equation of “100−binding rate”. The binding rate is represented by the following equation:
The IC50 of the test substance was calculated from a regression equation to the dose-response curve. That is to say, the ratio y=(B−N)/(B0−N) wherein a value of (B−N) is a specific binding radioactivity in the presence of a test substance, and a value of (B0−N) is a specific binding radioactivity in the absence of a test substance was first subjected to logit conversion and applied to a logit-log model plotted against the common logarithm of the test substance concentration to create a dose-response curve. […] The regression equation to the dose-response curve used is as follows: […]
Then, for each concentration of the positive substances, the reaction rate was measured while changing the concentration of the test substance in a range including the IC50 to create the Dixon plot, and the Ki value was calculated from the test substance concentration giving an intersection of these straight lines.

[1] = system: rat cerebral cortex neural cells; experiment: Evaluation of neurite outgrowth-promoting activity in central neural cells; format: cell-based; conditions: 48 hours after addition, mean±standard error, control 18.0 ± 1.6
Description: The neurite outgrowth-promoting effects of the rat cerebral cortex neural cells on test substances were evaluated by the following method. The cerebral cortex neural cells were isolated from Wistar rats on the 18th day of pregnancy according to the method of Springer Neuroscience Lab Manual. That is to say, under ether anesthesia, a fetal rat was removed from the uterus of a pregnant rat on day 18, and transferred into a petri dish containing HBSS (manufactured by Gibco, Inc.) on ice. The cerebral cortex was cut out under a stereoscopic microscope. The cerebral cortex that had been cut out was dispersed with a neural cells dispersion solution (manufactured by Sumitomo Bakelite Co., Ltd.) to prepare rat cerebral cortex cells.
The resulting cerebral cortex cells were subjected to cell culture. Neurobasal medium (manufactured by Gibco, Inc.) supplemented with B27 Supplement (manufactured by Gibco, Inc.; Fin. 2% v/v), L-glutamine (manufactured by IBCO company; Fin. 0.5 mM) and GlutaMax I (manufactured by Gibco, Inc.; Fin. 0.5 mM) was used as the culture medium. The culture conditions were as follows: 5% CO2, 95% air, 100% humidity, and 37° C. The cells were inoculated to polylysine-coated 8-well slides (manufactured by IWAKI company) so as to have about 2×10^4 cells/well.
Compound [2], compound [3], compound [4], compound [5], compound [6], compound [7], compound [8], compound [9], compound [10], compound [11], and compound [12] (final•concentrations: 0.3 μM and 1.0 μM) were added as respective test substances to the culture solution at about 3 hours after the cell inoculation, and the culture solution with no additives was used as a control.
At 48 hours after the addition of the compounds, the cells were fixed by treatment with 4% paraformaldehyde (manufactured by Wako Pure Chemical Industries) at room temperature for about 30 minutes, and incubated with an anti-α-Tublin antibody (Anti-α-Tubulin Alexa Fluor 488 conjugate) recognizing a microtubule protein, at room temperature for one hour. After washing, the nucleus of the whole cell was stained with a nucleic acid-staining agent DAPI. The cells were observed under a fluorescence microscope at a magnification of 20 times. The stained cell image and the nuclear staining image in the same field of vision were imported into a computer as the image. Using an image analysis software (MethaMorph (registered trademark), Molecular Devises), the image imported into the computer was used to measure the “longest neurite length” that was the length of the longest neurite of individual cell in each field of vision. A cell having a length of the “longest neurite length” of 60 μm or more was defined as a “neurite forming cell” and the neurite forming activity was evaluated by the ratio of the “neurite forming cell” occupied in the number of the cells in the same field of vision. In other words, evaluation was performed by determining the rate of the neurite forming cells using the following equation:
Rate of neurite forming cells=[Number of neurite forming cells/Number of total cells in the same field of vision]×100

[2] = system: rat cerebral cortex neural cells; experiment: as above; format: cell-based; conditions: cultured for 48 hours

| Compound | Ki (sigma receptor) | Neurite outgrowth-promoting activity (%) (rate of neurite forming cells, longest neurite 60 μm or more) ([1]; 0.3 μM) | Neurite outgrowth-promoting activity (%) (rate of neurite forming cells, longest neurite 60 μm or more) ([1]; 1.0 μM) | inhibition at 1 µM (sigma receptor) | inhibition at 0.1 µM (sigma receptor) | inhibition at 0.01 µM (sigma receptor) | inhibition at 0.001 µM (sigma receptor) | inhibition at 0.0001 µM (sigma receptor) | inhibition at 10 pM (sigma receptor) | IC50 (sigma receptor) | ratio of cells extending dendrites compared with no additives (FIG. 1) ([2]; final concentration 1 μM) | ratio of cells having neurites having the length two or more times the cell body diameter (FIG. 2) ([2]; final concentrations 0.1 μM, 1 μM, 10 μM) |
| --- | --- | --- | --- | --- | --- | --- | --- | --- | --- | --- | --- | --- |
| CCN(CCOc1ccc(F)cc1)C1CCCCC1 [Compound [11], N-ethyl-N-[2-(4-fluorophenoxy)ethyl]cyclohexylamine] | 2.4 nM | 43.5 ± 2.4% | 50.7 ± 2.2% | – | – | – | – | – | – | – | – | – |
| CCN(CCOc1ccccc1)C1CCCCC1 [Compound [12], N-ethyl-N-(2-phenoxyethyl)cyclohexylamine] | 6.6 nM | 44.2 ± 1.4% | 32.2 ± 1.0% | – | – | – | – | – | – | – | – | – |
| CCN(CCSc1cccc(C(F)(F)F)c1)C1CCCCC1 [Compound [4], N-[2-(3-trifluoromethyl)phenylthio]ethyl-N-ethylcyclohexylamine] | 0.8 nM | 21.4 ± 2.2% | 39.4 ± 2.5% | 100% | 100% | 99.7% | 95.2% | 23.5% | 10.4% | 0.189 nM | – | – |
| CCN(CCCc1ccccc1)C1CCCCC1 [Compound [8], N-(3-phenylpropyl)-N-ethylcyclohexylamine] | 8.7 nM | 59.9 ± 1.8% | 61.7 ± 2.0% | – | – | – | – | – | – | – | – | – |
| CCN(CCSc1ccc(OC)c(OC)c1)C1CCCCC1 [Compound [6], N-[2-(3,4-dimethoxy)phenylthio]ethyl-N-ethylcyclohexylamine] | 3.7 nM | – | 40.3 ± 3.4% | 99.9% | 99.1% | 98.1% | 86.6% | 19.9% | 1.75% | 0.268 nM | – | – |
| CCN(CCSc1ccc(F)cc1)C1CCCCC1 [Compound [7], N-[2-(4-fluorophenylthio)ethyl]-N-ethylcyclohexylamine] | 0.8 nM | 30.2 ± 2.5% | 53.3 ± 1.4% | 97.3% | 96.3% | 90% | 44.5% | 3.43% | 0% | 1.23 nM | – | – |
| CCN(CCSc1ccccc1)C1CCCCC1 [Compound [2], N-(2-(phenylthio)ethyl)-N-ethylcyclohexylamine] | 1 nM | 37.4 ± 3.5% | 50.6 ± 1.4% | – | – | – | – | – | – | – | obviously higher than that of the case of no additives | significantly increased |
| CCN(CCSc1cccc(C(F)F)c1)C1CCCCC1 [Compound [5], N-[2-(3-difluoromethyl)phenylthio]ethyl-N-ethylcyclohexylamine] | – | 41.6 ± 3.3% | 50.8 ± 2.8% | 97.5% | 99.2% | 98.6% | 92.8% | 20.8% | 1.25% | 0.222 nM | – | – |
| CCN(CCCc1ccc(OC)cc1)C1CCCCC1 [Compound [9], N-[3-(4-methoxyphenyl)propyl]-N-ethylcyclohexylamine] | 10.5 nM | 31.4 ± 5.8% | 59.6 ± 1.0% | – | – | – | – | – | – | – | – | – |
| c1ccc(SCCN2CCCC3CCCCC32)cc1 (stereo not shown) [Compound [3], N-(2-phenylthio)ethyldecahydroquinoline] | 1.6 nM | 32.8 ± 5.3% | 52.6 ± 1.2% | 99.9% | 100% | 90.4% | 46.8% | 6.31% | 2.84% | 1.2 nM | – | – |
| CCN(CCCc1ccc(F)cc1)C1CCCCC1 [Compound [10], N-[3-(4-fluorophenyl)propyl]-N-ethylcyclohexylamine] | 8.5 nM | 26.8 ± 1.1% | 57.0 ± 3.0% | – | – | – | – | – | – | – | – | – |
| COc1ccc(CCN2CCN(CCCc3ccccc3)CC2)cc1OC [Reference compound, SA4503, reference compound] | – | 44.6 ± 2.2% | 58.4 ± 1.8% | – | – | – | – | – | – | – | – | – |
